Laboratory results from the NIST ThermoML archive (doi:10.1021/acs.jced.8b00132).
Where “and” joins values, the source holds several entries; their conditions need not be identical. Equal entries are not always repeated.

Conditions: Gas

O=C(C(F)(F)C(F)(F)F)C(F)(C(F)(F)F)C(F)(F)F [dodecafluoro-2-methylpentan-3-one]
Conditions	thermal conductivity
453.04 K, 2349 kPa, transient hot wire	0.03749 W/m/K
453.05 K, 2432 kPa, transient hot wire	0.03632 W/m/K
453.06 K, 2213 kPa, transient hot wire	0.03787 W/m/K
453.06 K, 2283 kPa, transient hot wire	0.039 W/m/K
453.07 K, 2432 kPa, transient hot wire	0.03565 W/m/K
453.08 K, 2213 kPa, transient hot wire	0.03857 W/m/K and 0.03787 W/m/K
453.09 K, 2350 kPa, transient hot wire	0.03794 W/m/K and 0.03775 W/m/K
453.11 K, 2432 kPa, transient hot wire	0.03612 W/m/K and 0.03616 W/m/K
453.11 K, 2570 kPa, transient hot wire	0.03577 W/m/K and 0.03583 W/m/K
453.11 K, 2808 kPa, transient hot wire	0.03624 W/m/K and 0.03614 W/m/K
453.14 K, 2350 kPa, transient hot wire	0.03841 W/m/K and 0.03851 W/m/K
453.15 K, 2570 kPa, transient hot wire	0.0359 W/m/K
453.16 K, 2433 kPa, transient hot wire	0.03632 W/m/K
453.17 K, 2136 kPa, transient hot wire	0.03394 W/m/K and 0.03367 W/m/K
453.17 K, 2432 kPa, transient hot wire	0.03641 W/m/K
453.17 K, 2808 kPa, transient hot wire	0.03589 W/m/K
453.19 K, 5686 kPa, transient hot wire	0.04064 W/m/K
453.21 K, 2136 kPa, transient hot wire	0.03328 W/m/K
453.21 K, 2570 kPa, transient hot wire	0.03619 W/m/K
453.21 K, 3282 kPa, transient hot wire	0.03735 W/m/K
453.21 K, 3283 kPa, transient hot wire	0.03693 W/m/K
453.22 K, 2136 kPa, transient hot wire	0.03435 W/m/K
453.22 K, 2432 kPa, transient hot wire	0.03662 W/m/K
453.22 K, 2570 kPa, transient hot wire	0.03586 W/m/K
453.22 K, 2810 kPa, transient hot wire	0.03611 W/m/K
453.23 K, 2433 kPa, transient hot wire	0.03706 W/m/K
453.23 K, 2810 kPa, transient hot wire	0.03619 W/m/K
453.23 K, 8482 kPa, transient hot wire	0.04362 W/m/K
453.24 K, 8482 kPa, transient hot wire	0.04354 W/m/K
453.26 K, 5649 kPa, transient hot wire	0.04056 W/m/K
453.27 K, 3283 kPa, transient hot wire	0.03745 W/m/K
453.27 K, 5649 kPa, transient hot wire	0.04057 W/m/K
453.28 K, 2570 kPa, transient hot wire	0.03618 W/m/K
453.29 K, 2570 kPa, transient hot wire	0.03626 W/m/K
453.29 K, 2810 kPa, transient hot wire	0.03632 W/m/K
453.29 K, 4172 kPa, transient hot wire	0.03871 W/m/K
453.29 K, 4174 kPa, transient hot wire	0.03872 W/m/K
453.3 K, 2810 kPa, transient hot wire	0.03661 W/m/K
453.33 K, 2570 kPa, transient hot wire	0.03666 W/m/K
453.33 K, 3284 kPa, transient hot wire	0.03713 W/m/K
453.34 K, 1996 kPa, transient hot wire	0.03032 W/m/K
453.34 K, 3284 kPa, transient hot wire	0.03709 W/m/K
453.34 K, 5678 kPa, transient hot wire	0.04058 W/m/K
453.34 K, 5680 kPa, transient hot wire	0.0407 W/m/K
453.36 K, 1997 kPa, transient hot wire	0.02939 W/m/K
453.36 K, 2570 kPa, transient hot wire	0.03639 W/m/K
453.36 K, 2811 kPa, transient hot wire	0.03631 W/m/K
453.37 K, 8482 kPa, transient hot wire	0.04354 W/m/K
453.38 K, 8480 kPa, transient hot wire	0.0435 W/m/K
453.39 K, 4177 kPa, transient hot wire	0.03877 W/m/K
453.4 K, 3286 kPa, transient hot wire	0.03741 W/m/K
453.4 K, 5646 kPa, transient hot wire	0.04064 W/m/K
453.4 K, 13124 kPa, transient hot wire	0.04703 W/m/K and 0.04697 W/m/K
453.41 K, 3285 kPa, transient hot wire	0.03741 W/m/K
453.41 K, 5645 kPa, transient hot wire	0.04067 W/m/K
453.42 K, 1998 kPa, transient hot wire	0.02991 W/m/K and 0.02978 W/m/K
453.46 K, 20262 kPa, transient hot wire	0.05129 W/m/K
453.48 K, 3286 kPa, transient hot wire	0.03719 W/m/K
453.48 K, 5676 kPa, transient hot wire	0.04078 W/m/K
453.48 K, 20262 kPa, transient hot wire	0.05134 W/m/K
453.49 K, 4182 kPa, transient hot wire	0.03866 W/m/K
453.49 K, 5674 kPa, transient hot wire	0.04064 W/m/K
453.49 K, 8479 kPa, transient hot wire	0.04353 W/m/K
453.5 K, 4184 kPa, transient hot wire	0.03869 W/m/K
453.5 K, 31253 kPa, transient hot wire	0.05652 W/m/K
453.51 K, 8480 kPa, transient hot wire	0.04354 W/m/K
453.51 K, 31255 kPa, transient hot wire	0.05656 W/m/K
453.52 K, 1999 kPa, transient hot wire	0.03046 W/m/K
453.52 K, 13123 kPa, transient hot wire	0.04703 W/m/K
453.53 K, 13124 kPa, transient hot wire	0.04696 W/m/K
453.54 K, 5643 kPa, transient hot wire	0.04051 W/m/K
453.55 K, 47061 kPa, transient hot wire	0.06271 W/m/K
453.56 K, 1718 kPa, transient hot wire	0.02564 W/m/K
453.58 K, 1718 kPa, transient hot wire	0.02573 W/m/K
453.6 K, 4188 kPa, transient hot wire	0.03889 W/m/K
453.6 K, 46969 kPa, transient hot wire	0.06282 W/m/K
453.6 K, 46979 kPa, transient hot wire	0.06275 W/m/K
453.62 K, 4187 kPa, transient hot wire	0.03872 W/m/K
453.62 K, 20261 kPa, transient hot wire	0.05127 W/m/K
453.62 K, 20264 kPa, transient hot wire	0.05121 W/m/K
453.63 K, 5670 kPa, transient hot wire	0.04057 W/m/K
453.63 K, 5671 kPa, transient hot wire	0.04054 W/m/K
453.63 K, 31252 kPa, transient hot wire	0.05654 W/m/K
453.64 K, 526 kPa, hot wire	0.02431 W/m/K
453.64 K, 8480 kPa, transient hot wire	0.04343 W/m/K
453.64 K, 31251 kPa, transient hot wire	0.05647 W/m/K
453.65 K, 526 kPa, hot wire	0.02432 W/m/K
453.66 K, 8479 kPa, transient hot wire	0.04348 W/m/K
453.66 K, 47049 kPa, transient hot wire	0.06259 W/m/K
453.67 K, 1718 kPa, transient hot wire	0.02603 W/m/K
453.67 K, 47042 kPa, transient hot wire	0.06272 W/m/K
453.68 K, 1718 kPa, transient hot wire	0.02589 W/m/K
453.68 K, 13120 kPa, transient hot wire	0.04693 W/m/K
453.68 K, 13121 kPa, transient hot wire	0.04701 W/m/K
453.69 K, 5641 kPa, transient hot wire	0.04062 W/m/K
453.7 K, 353 kPa, hot wire	0.02345 W/m/K
453.7 K, 5640 kPa, transient hot wire	0.04066 W/m/K
453.72 K, 350 kPa, hot wire	0.02302 W/m/K
453.73 K, 171 kPa, hot wire	0.02261 W/m/K
453.73 K, 174 kPa, hot wire	0.0228 W/m/K
453.73 K, 4189 kPa, transient hot wire	0.03831 W/m/K
453.73 K, 4192 kPa, transient hot wire	0.03871 W/m/K
453.73 K, 46962 kPa, transient hot wire	0.06254 W/m/K
453.73 K, 46969 kPa, transient hot wire	0.06263 W/m/K
453.74 K, 525 kPa, hot wire	0.0244 W/m/K
453.75 K, 524 kPa, hot wire	0.02432 W/m/K
453.75 K, 1718 kPa, transient hot wire	0.02601 W/m/K
453.76 K, 1718 kPa, transient hot wire	0.02605 W/m/K
453.77 K, 20261 kPa, transient hot wire	0.05121 W/m/K
453.77 K, 20262 kPa, transient hot wire	0.0513 W/m/K
453.78 K, 48 kPa, hot wire	0.02241 W/m/K
453.78 K, 31246 kPa, transient hot wire	0.0566 W/m/K
453.79 K, 31248 kPa, transient hot wire	0.05653 W/m/K
453.8 K, 48 kPa, hot wire	0.02228 W/m/K
453.8 K, 344 kPa, hot wire	0.0233 W/m/K
453.8 K, 347 kPa, hot wire	0.02342 W/m/K
453.8 K, 5666 kPa, transient hot wire	0.0408 W/m/K
453.8 K, 8477 kPa, transient hot wire	0.04345 W/m/K
453.81 K, 1718 kPa, transient hot wire	0.02631 W/m/K
453.81 K, 47035 kPa, transient hot wire	0.06264 W/m/K
453.82 K, 8478 kPa, transient hot wire	0.0434 W/m/K
453.84 K, 171 kPa, hot wire	0.02268 W/m/K
453.84 K, 524 kPa, hot wire	0.02443 W/m/K
453.84 K, 13123 kPa, transient hot wire	0.04696 W/m/K
453.85 K, 170 kPa, hot wire	0.02247 W/m/K
453.85 K, 13121 kPa, transient hot wire	0.04695 W/m/K
453.86 K, 523 kPa, hot wire	0.02411 W/m/K
453.87 K, 5638 kPa, transient hot wire	0.0407 W/m/K
453.87 K, 46957 kPa, transient hot wire	0.06253 W/m/K
453.88 K, 47 kPa, hot wire	0.02246 W/m/K and 0.02258 W/m/K
453.88 K, 1718 kPa, transient hot wire	0.02616 W/m/K and 0.02618 W/m/K
453.88 K, 46954 kPa, transient hot wire	0.06253 W/m/K
453.9 K, 340 kPa, hot wire	0.02338 W/m/K
453.9 K, 342 kPa, hot wire	0.02344 W/m/K
453.91 K, 1365 kPa, transient hot wire	0.02445 W/m/K
453.92 K, 1364 kPa, transient hot wire	0.02439 W/m/K
453.93 K, 20259 kPa, transient hot wire	0.05122 W/m/K
453.94 K, 524 kPa, hot wire	0.02452 W/m/K
453.94 K, 1718 kPa, transient hot wire	0.02654 W/m/K
453.94 K, 1719 kPa, transient hot wire	0.02663 W/m/K
453.94 K, 20259 kPa, transient hot wire	0.05128 W/m/K
453.94 K, 31248 kPa, transient hot wire	0.05655 W/m/K
453.95 K, 170 kPa, hot wire	0.0227 W/m/K and 0.02256 W/m/K
453.95 K, 524 kPa, hot wire	0.02446 W/m/K
453.95 K, 31244 kPa, transient hot wire	0.05645 W/m/K
453.95 K, 47020 kPa, transient hot wire	0.06258 W/m/K
453.96 K, 47012 kPa, transient hot wire	0.06261 W/m/K
453.98 K, 48 kPa, hot wire	0.02243 W/m/K and 0.02253 W/m/K
454.01 K, 338 kPa, hot wire	0.02346 W/m/K
454.02 K, 339 kPa, hot wire	0.02333 W/m/K
454.02 K, 13121 kPa, transient hot wire	0.047 W/m/K and 0.04696 W/m/K
454.02 K, 46938 kPa, transient hot wire	0.06262 W/m/K
454.02 K, 46945 kPa, transient hot wire	0.06264 W/m/K
454.06 K, 523 kPa, hot wire	0.02445 W/m/K
454.07 K, 170 kPa, hot wire	0.02273 W/m/K
454.07 K, 522 kPa, hot wire	0.02433 W/m/K
454.07 K, 1364 kPa, transient hot wire	0.02449 W/m/K
454.07 K, 1365 kPa, transient hot wire	0.02446 W/m/K
454.07 K, 1718 kPa, transient hot wire	0.02688 W/m/K and 0.02682 W/m/K
454.08 K, 169 kPa, hot wire	0.02266 W/m/K
454.09 K, 48 kPa, hot wire	0.02257 W/m/K
454.1 K, 48 kPa, hot wire	0.0225 W/m/K
454.1 K, 20256 kPa, transient hot wire	0.0513 W/m/K and 0.05118 W/m/K
454.1 K, 31241 kPa, transient hot wire	0.05644 W/m/K
454.1 K, 31244 kPa, transient hot wire	0.05644 W/m/K
454.11 K, 47006 kPa, transient hot wire	0.06269 W/m/K
454.13 K, 337 kPa, hot wire	0.02342 W/m/K
454.13 K, 338 kPa, hot wire	0.0234 W/m/K
